The nature of data set [1]: Bioavailability of diazoxide choline and related molecules. As to conditions: male mice; for AUC0-6 / Cmax: Oral gavage, single 50 mg/kg dose; for Relative oral bioavail.: ratio of AUC0-6 to that of the IV dose of diazoxide choline.
Description: The study used 4 mice dosed per treatment arm. Following, a single intravenous or oral dose, administered by gavage, pharmacokinetic samples were collected at 4 time points: 0.5, 1, 3, and 6 hours post-dosing. Two mice were sampled at each timepoint, with each mouse contributing samples to two timepoints. Each test drug was administered as a 50 mg/kg dose, which yields nearly equal molar concentrations. […] Blood samples were collected into tubes containing dipotassium EDTA as the anticoagulant and placed on ice packs until centrifugation (at 3000 rpm for 10 minutes at 4° C.). After centrifugation, samples were stored at −70° C. until they were thawed for analysis. Circulating drug levels were measured using a precise and reproducible LC-MS/MS assay.
The nature of data set [2]: Slurry studies of inter-conversion of the solid form. The conditions noted are these: room temperature.
The nature of data set [3]: Form conversion and degradation under thermal stress (60° C.). The conditions noted are these: for Thermal: 7 days. How it is done: Studies were also conducted to evaluate the likelihood for conversion and degradation under thermal stress.
Data set [4] can be described thus: Moisture sorption analysis. The class given is physicochemical. How it is done:
Moisture Sorption Analysis was performed with a Hiden IGAsorp Moisture Sorption Instrument, Samples were first dried at 0% relative humidity at 25° C. until an equilibrium weight was reached, or for a maximum of 4 hours. Samples were then subjected to an isothermal (25° C.) scan from 10-90% relative humidity in steps of 10%. The samples were allowed to equilibrate to an asymptotic weight at each point for a maximum of 4 hours. Following absorption, a desorption scan from […] relative humidity (at 25° C.) was run in steps of −10%, again allowing a maximum of 4 hours for the samples to equilibrate. The resulting samples after desorption were dried at 80° C. for two hours and analyzed by XRPD.

Data set [5] can be described thus: Solubility screen in organic solvents.
Data set [6] in a line: Polymorph screening crystallizations and characterization of forms (XRPD, DSC, TGA). The class given is physicochemical. As to conditions: for TGA: data indicates a half-molar equivalent of acetone, water, or dioxane for Forms C, D, F. How it is done: DSC analysis were conducted with a Mettler 822 DSC, by measuring the amount of energy released by a sample, as the sample was heated from 30° C. to between 300-500° C. at a rate of 10° C./min. Typical applications of DSC analysis include determination of melting point temperature and the heat of melting; measurement of the glass transition temperature; curing and crystallization studies; and identification of phase transformations.
TGA measurements were conducted with a Mettler 851 SDTA/TGA, by measuring weight loss as a function of increasing temperature, as the samples were heated from 30° C. to 230° C. at a rate of 10° C./min. The TCA can be used to analyze desorption and decomposition behavior, characterize oxidation behavior, set burnout or conditioning parameters (temperature/ramp rate/time), and determine chemical composition.
XRPD samples were analyzed with a Shimadzu XRD-6000 system, using a Cu Kα, 40 kV, 40 mA X-ray tube. The divergence and scatter slits were 1.00 deg, and the receiving slit was 0.30 mm. Samples were continuously scanned at a range of 3.0-45.0 deg, with a step size of 0.04 deg., at a scan rate of 2 deg/min.
After hot filtration the vials were placed in a refrigerator (4° C.) for 16 hours. […] All solids were dried in vacuo at ambient temperature and 30 in. Hg.
After hot filtration the vials were then slowly cooled to room temperature at the rate of 20° C./h and stirred at room temperature for 1-2 hours. All solids were dried in vacuo at ambient temperature and 30 in. Hg.
Solvents for crystallizations were chosen based on the solubility screen summarized below.

The mark [7] stands for this setting: 50/50 mixtures of potassium salt Forms C, D, F, ethyl acetate, acetonitrile, isopropanol.
Where [8] appears, read: 60° C., closed, protected from light, 7 and 14 days.

Entries after “also recorded” stand apart in the source; their conditions may differ. Where a name gives a salt, the structure may show the parent alone. Read-outs that look alike come from different tables or passages of the source. Marks after values point to notes of the source that are not given here.

The Cmax is the highest concentration seen after dosing. With `COc1ccc2c(c1)NC(NC(C)C)=NS2(=O)=O`, in data set [1], the AUC0-6 stood at 3590 ng·h/mL, the Cmax worked out at 1.56 µg/mL and the Relative oral bioavail. is recorded as 2.6%.

For `O=S1(=O)N=C(NC2CCC2)Nc2ccc(F)cc21`, in data set [1], the AUC0-6 came to 89 ± 16 ng·h/mL, the Cmax came out at 0.024 ± 0.01 µg/mL and the Relative oral bioavail. turned out to be 0.06%.

On to `O=S1(=O)N=C(NC2CCC2)Nc2ccc(Br)cc21`, for which, in data set [1], the AUC0-6 was determined as 800 ± 126 ng·h/mL, the Cmax was determined as 0.181 ± 0.016 µg/mL and the Relative oral bioavail. is reported as 0.6%.

For `CC1=Nc2ccc(Cl)cc2S(=O)(=O)[N-]1.C[N+](C)(C)CCO` [diazoxide choline salt Form A], the “inter-conversion of the solid form in slurry” value (shortened to “inter-conversion”) in data set [2] (7 and 14 days, n-heptane, dichloromethane, toluene (Table 16 Form B: CH2Cl2, THF, t-AmOH), listed as Form A) is “conversion to Form B was observed after seven days; also recorded: readily converted to Form B; also recorded: Converted to Form B after 7”. Besides, the “form conversion and degradation under thermal stress (XRPD, DSC)” value (shortened to “form conversion and degradation”) in data set [3] is given as “Started to convert to Form”. Further, the “Moisture Sorption (hygroscopicity)” value in data set [4] (25° C., listed as Form A) was “Hygroscopic - deliquesced”. Moreover, the water absorbed in data set [4] (60% RH, 25° C., listed as Form A) is reported as 2.4 wt %. Also, the “crystalline form after moisture sorption/desorption (XRPD)” value in data set [4] (listed as Form A) is “consistent with Form A”.

Regarding `CC(C)=O.CC1=NS(=O)(=O)c2cc(Cl)ccc2[N-]1.CC1=NS(=O)(=O)c2cc(Cl)ccc2[N-]1.[K+].[K+]` [diazoxide potassium salt Form C], the “inter-conversion” value in data set [2] (setting [7]) was “readily converted to Form D; also recorded: conversion to Form D was observed in all solvents”. The “form conversion and degradation” value in data set [3] (setting [8]) is recorded as “stable”. Moreover, the “crystalline form after moisture sorption/desorption (XRPD)” value in data set [4] is reported as “consistent with Form D”. The “Moisture Sorption (hygroscopicity)” value in data set [4] (25° C.) is on record as “hygroscopic”. In addition, the water absorbed result in data set [4] (90% RH, 25° C.) is “approximately 47 wt %”.

One may read the solubility as how much of the substance goes into solution per volume. Lower therefore signals a poorly soluble substance. As for `CC1=NS(=O)(=O)c2cc(Cl)ccc2N1` [Diazoxide Potassium Salt], the Soluble entry was “Yes” in data set [5] (Acetone, 0.40 mg/mL, 55 ° C.); “No” in data set [5] (CH2Cl2, […], 55 ° C.); “Yes” in data set [5] (DMF, >6.40 mg/mL, rt); “No” in data set [5] (Dioxane, […], 55 ° C.); “No” in data set [5] (EtOAc, […], 55 ° C.); “Yes” in data set [5] (EtOH, […], 55 ° C.). The Soluble result was “No” in data set [5] (Heptane, 0.24 mg/mL, 55 ° C.); “Yes” in data set [5] (IPA, […], 55 ° C.); “No” in data set [5] (IPAc, […], 55 ° C.); “Partially” in data set [5] (MEK, 0.30 mg/mL, 55 ° C.); “No” in data set [5] (MTBE, […], 55 ° C.); “Yes” in data set [5] (MeCN, 0.85 mg/mL, 55 ° C.). The Soluble entry is given as “Yes” in data set [5] (MeOH, 6.00 mg/mL, 55 ° C.); “Partially” in data set [5] (THF, […], 55 ° C.); “No” in data set [5] (Toluene, […], 55 ° C.); “No” in data set [5] (Water, 0.30 mg/mL, 55 ° C.); “No” in data set [5] (c-Hexane, 0.30 mg/mL, 55 ° C.). The Conc. in data set [5] (CH2Cl2, 55 ° C.) was 260 µg/mL; in data set [5] (DMF, rt) it was more than 6400 µg/mL; in data set [5] (Dioxane, 55 ° C.), 280 µg/mL; in data set [5] (EtOAc, 55 ° C.) it was 360 µg/mL; in data set [5] (EtOH, 55 ° C.), 2930 µg/mL; in data set [5] (Heptane, 55 ° C.), 240 µg/mL. In addition, the Conc. in data set [5] (IPA, 55 ° C.) amounted to 2100 µg/mL; in data set [5] (IPAc, 55 ° C.), 340 µg/mL; in data set [5] (MEK, 55 ° C.), 300 µg/mL; in data set [5] (MTBE, 55 ° C.), 360 µg/mL; in data set [5] (MeCN, 55 ° C.) it was 850 µg/mL; in data set [5] (MeOH, 55 ° C.) it was 6000 µg/mL. Also, the Conc. was determined as 360 µg/mL in data set [5] (THF, 55 ° C.); 280 µg/mL in data set [5] (Toluene, 55 ° C.); 300 µg/mL in data set [5] (c-Hexane, 55 ° C.). The molecule also came in with a solubility in data set [5] (water, 55 °C) of 300 µg/mL.

Regarding `CC(C)NC1=NS(=O)(=O)c2cc(Cl)c(F)cc2N1`, in data set [1], the AUC0-6 was 313 ± 15 ng·h/mL, the Cmax was 0.08 ± 0.012 µg/mL and the Relative oral bioavail. came to 0.2%.

With `CC1=NS(=O)(=O)c2cc(Cl)ccc2[N-]1.[K+]` [Diazoxide potassium Form C], the Thermal entry in data set [3] is on record as “Stable (7 days)”. In data set [4], the “Moisture Sorption” value is “Hygroscopic -” and the “Moisture Sorption: deliquesced at” value is recorded as “deliquesced at 90% RH”. Further, in data set [6], the XRPD result is listed as “Crystalline” and the TGA is given as 8.4%**.

With `CC1=NS(=O)(=O)c2cc(Cl)ccc2[N-]1.CC1=NS(=O)(=O)c2cc(Cl)ccc2[N-]1.O.[K+].[K+]` [diazoxide potassium salt Form D], the “inter-conversion” value in data set [2] (setting [7]) was “conversion to Form D was observed in all solvents”. Further, the “crystalline form after moisture sorption/desorption (XRPD)” value in data set [4] is “consistent with Form D”. In addition, in data set [4] (25° C.), the “Moisture Sorption (hygroscopicity)” value is “hygroscopic”.

Regarding `CC1=NS(=O)(=O)c2cc(Cl)ccc2[N-]1.[K+]` [Diazoxide potassium Form F], the Thermal entry in data set [3] is listed as “Stable (7 days)”. Also, in data set [6], the XRPD entry is “Crystalline” and the TGA is 13.1%**.

For the molecule `CC1=Nc2ccc(Cl)cc2S(=O)(=O)[N-]1.C[N+](C)(C)CCO` [diazoxide choline salt Form B], the “inter-conversion” value in data set [2] (7 and 14 days, n-heptane, dichloromethane, toluene (Table 16 Form B: CH2Cl2, THF, t-AmOH), listed as Form B) is on record as “form conversion was not observed; also recorded: Stable after 14 days in”. Moreover, the “form conversion and degradation” value in data set [3] is on record as “Stable after 14 days at”. Moreover, the “Moisture Sorption (hygroscopicity)” value in data set [4] (25° C., listed as Form B) is reported as “hygroscopic; also recorded: Hygroscopic -”. This molecule displayed a water absorbed in data set [4] (60% RH, 25° C., listed as Form B) of 7.4 wt %. In data set [4] (70% relative humidity, 25° C.), the moisture absorbed entry was “over 14.5%”. The “crystalline form after moisture sorption/desorption (XRPD)” value in data set [4] (listed as Form B) is given as “remained in the Form B crystal structure”.

With `CC1=NS(=O)(=O)c2cc(Cl)ccc2[N-]1.[K+]` [Diazoxide potassium Form D], the Thermal result in data set [3] is “Stable (7 days)”. In data set [4], the “Moisture Sorption” value was “Hygroscopic -” and the “Moisture Sorption: deliquesced at” value was “deliquesced at 90% RH”. Also, in data set [6], the XRPD entry is on record as “Crystalline” and the TGA was 4.5%**.

As to `CC1=NS(=O)(=O)c2cc(Cl)ccc2[N-]1.[Na+]` [sodium salt of diazoxide], the “inter-conversion” value in data set [2] (7 and 14 days, n-heptane, dichloromethane, toluene (Table 16 Form B: CH2Cl2, THF, t-AmOH)) was “no propensity of inter-conversion”. Further, in data set [3] (setting [8]), the “form conversion and degradation” value was “little propensity to change form or degrade”. Moreover, the “Moisture Sorption (hygroscopicity)” value is reported as “hygroscopic” in data set [4] (25° C.) and “deliquescent -” in data set [4] (25° C., listed as Sodium diazoxide salt). In addition, the “hydrate formation (hysteresis upon desorption)” value in data set [4] (25° C.) is “possible hydrate formation”. Also, the water absorbed in data set [4] (60% RH, 25° C.) is recorded as 1.2 wt %; in data set [4] (80% RH, 25° C.), 6.6 wt %.

In the case of `C1COCCO1.CC1=NS(=O)(=O)c2cc(Cl)ccc2[N-]1.CC1=NS(=O)(=O)c2cc(Cl)ccc2[N-]1.[K+].[K+]` [diazoxide potassium salt Form F], the “inter-conversion” value in data set [2] (setting [7]) is given as “readily converted to Form D; also recorded: conversion to Form D was observed in all solvents”. The “crystalline form after moisture sorption/desorption (XRPD)” value in data set [4] is “consistent with Form D”. In addition, the “Moisture Sorption (hygroscopicity)” value in data set [4] (25° C.) is “hygroscopic”. Moreover, the water absorbed in data set [4] (90% RH, 25° C.) is recorded as approximately 22 wt %.
